Here are results for eleven molecules from US20220168331A1, “PRR-Activating and MicroRNA-Inhibiting Molecules and Methods of Using Same” (Duke University, priority 2019, published 2022).

Entries after “also recorded” stand apart in the source; their conditions may differ. {PPP} = triphosphate

Data set [1] relates to Mouse macrophage cells. The experiment in a line: PRR tolerance: IFN-β production by pretreated macrophages after secondary treatment. Type of data set: cell-based. To be noted: for IFN-β production after secondary treatment, cells pretreated with the substance versus control: pretreatment overnight, then cytoplasmic PRR agonists, FIG. 9B; for IFN-β production, cells pre-treated with mixture of 1-MT and CH223191 versus DMSO: substance given as mixture of IDO inhibitor and AHR inhibitor, FIG. 9. How it is done:
(§1) In addition to prior activation of MDA5, prior activation of TLR4, RIG-I, and STING induced self- and cross-tolerance of same and different PRRs.
(§2) Mouse BM-DCs were treated with pIC/DF complex (cytoplasmic MDA5), ICR4/DF complex (cytoplasmic RIG-I), 2′3′-cGAMP (cytoplasmic STING), or transfection agent DF alone (FIG. 9A). Mouse macrophage cells were treated with dH2O (control), LPS (surface TLR4), or HMGB1 (surface TLR4), followed by treatment with DMSO (control) or mixture of CH223191 (AHR inhibitor) and 1-MT (IDO inhibitor) (FIG. 9B). After overnight incubation, the cells were replenished with fresh culture media and treated with indicated cytoplasmic PRR agonists. Levels of IFN-β production were measured using ELISA. □ P<0.05.

The test system of data set [2] is B16-F0 mouse melanoma cells. The experiment in a line: Cytotoxicity (MTT assay) in B16-F0 cells. To be noted: for cytotoxic effects after repeated treatments: two transfections at various concentrations, DharmaFECT, MTT three days after first transfection. Type of data set: cell-based. How it is done: (§3) B16-F0 and B16-F10 mouse melanoma cells lines are originated from the same parental cell line but they have different metastatic ability. B16-F0 cell line has no or marginal metastatic ability but B16-F10 cell line has potent metastatic ability. B16-F0 and B16-F10 cells (1×10^4) were treated with RIG-I agonist ICR4-liposome complex (0.6 μg/ml). After overnight incubation, cytotoxicity and IFN-β production by the cells were measured using MTT assay and ELISA, respectively. […] Tumor suppressor proteins, such as programmed cell death 4 (PDCD4) and phosphatase and tensin homolog (PTEN), and pre-miR-21 levels in B16-F0 and B16-F10 cells were measured using real-time qPCR. […] It was hypothisized that miR-21 would interfere with antitumor effects of RIG-I agonists in B16-F10 melanoma cells.
B16-F0 mouse melanoma cells were transfected with ICR4, RigantmiR-21, mutant RigantmiR-21, or anti-miR-21 at various concentrations using DharmaFECT (DF). After overnight incubation, the cells were replenished with fresh culture media, followed by another transfection with the same dose of RNAs. Three days after the first transfection, cytotoxicity levels were measured using MTT assay.
For orientation: Formazan colour is commonly taken as a measure of viable cells.

The test system of data set [3] is B16-F10 mouse melanoma cells. The experiment in a line: Cytotoxicity (MTT assay) in B16-F10 cells. It counts as cell-based. The settings on record: ICR4-liposome complex 0.6 μg/ml, overnight incubation. How it is done:
as §3

Data set [4] relates to B16-F0 mouse melanoma cells. The experiment in a line: IFN-β production (ELISA) by B16-F0 cells. It counts as cell-based. The settings on record: ELISA; for IFN-β production after first and second transfection: 12.5 nM, DharmaFECT, one day after first and second transfection. The protocol: as §3
B16-F0 mouse melanoma cells were transfected with ICR4, RigantmiR-21, mutant RigantmiR-21, or anti-miR-21 at 12.5 nM using DharmaFECT (DF). After overnight incubation, the cells were replenished with fresh culture media, followed by another transfection with the same dose of RNAs. One day after the first and second transfection, IFN-β production by these cells were determined using ELSIA.
B16-F0 mouse melanoma cells or bone marrow-derived dendritic cells (BM-DCs) were transfected once (x1) or twice (x2) with a complex of polyI:C (pIC) (0.6 μg/ml) and transfection agent jet-PEI. IFN-β production by the cells one day after each transfection was determined using ELISA.
(In general: ELISA stands for enzyme-linked immunosorbent assay.)

Data set [5] concerns B16-F10 mouse melanoma cells. Put plainly: IFN-β production (ELISA) by B16-F10 cells. It counts as cell-based. The settings on record: for IFN-β production compared to ICR2 and ICR2AS conjugated with seed mutant anti-miR-21: FIG. 6B, n=3. How it is done: as §3
To improve therapeutic effects of RIG-I agonists in B16-F10 cells, we designed and generated a novel RIG-I-activating RNA molecule (named RigantmiR-21) that is composed of a RIG-I-activating RNA structure (ICR4: 5′ppp-containg double stem-loop RNA) and a complementary sequence to mature miR-21. B16-F10 melanoma cells were transfected once or twice with RigantmiR-21, mutant RigantmiR-21, anti-miR-21, or ICR4 (0.6 μg/ml) using liposomal transfection agent DharmaFECT (DF). The expression of miR-21 target genes was determined using qPCR. IFN-β production was determined using ELISA. […] Anti-miR-21, ICR4, and RigantmiR-21 RNAs were complexed with in vivo transfection agent jet-PEI. Jet-PEI alone or RNA-jet-PEI complexes (25 μg) were injected thrice intratumorally into B16-F10 melanoma-bearing immunocompetent mice. (n=6).
Additionally, conjugation of anti-miR-21 improved the ability of other types of RIG-I agonists, such as ICR2 and ICR2AS^4 (sequences shown in FIG. 6A) to induce IFN-β production by cancer cells.

The subject of data set [6] is Human and murine cancer cell lines and human normal cells. The experiment in a line: Cytotoxicity (MTT assay) in cancer cell lines and normal cells. To be noted: transfected 0.8 mg/ml, 72 h after treatment, FIG. 2. Type of data set: cell-based. The protocol: Human and murine cancer cell lines and human normal cells in 96-well plate (7000 cells/well) were transfected with RIG-I agonist 5′ppp ssRNA ICR4 ([…]). Cells were harvested 72 h after treatment and analyzed for cytotoxicity using MTT assay. N=3. *, P<0.05.

Data set [7] deals with mouse pancreatic, adenocarcinoma, and sarcoma cells. Put plainly: Antitumor activities in mouse pancreatic cancer and sarcoma cells (overall statements). To be noted: FIGS. 4A-4C. Type of data set: cell-based. The protocol:
The antitumor effects of RigantmiR-21 are not limited to melanoma cells. KPC-4839 (mouse pancreatic ductal adenocarcinoma), PANC-02 (mouse pancreatic adenocarcinoma) and mouse sarcoma cell line cells were transfected with indicated ICR4, RigantmiR-21, mutant RigantmiR-21, or anti-miR-21 (0.6 μg/ml) using DharmaFECT (DF). After overnight incubation, IFN-β production by these cells was determined using ELSIA. (n=3). As shown in FIGS. 4A-4C, RigantmiR-21 treatments induced cell death and IFN-β production by mouse pancreatic, adenocarcinoma, and sarcoma cells that are also resistant to RIG-I agonist ICR4.

The test system of data set [8] is Mouse BM-DCs. Put plainly: PRR tolerance: IFN-β production by pretreated BM-DCs after secondary treatment. It counts as cell-based. To be noted: pretreatment overnight, then cytoplasmic PRR agonists; FIG. 9A. How it is done: as §1, §2
Data set [9] deals with PANC-02 mouse pancreatic cancer cell line. Put plainly: PRR tolerance: IFN-β production by pretreated PANC-02 cells after secondary treatment. The settings on record: FIG. 8; for IFN-β production, cells pre-treated with mixture of 1-MT and CH223191 versus DMSO: substance given as mixture of IDO inhibitor and AHR inhibitor; for IFN-β production after secondary treatment, cells pretreated with the substance versus control: pretreatment at sublethal dose overnight, then pIC/DF complex 0.6 μg/ml. It counts as cell-based. How it is done: as §1
(§4) In particular, mouse pancreatic cancer cell line PANC-02 and melanoma cell line B16-F10 were pretreated with dH2O, MDA5 agonist (pIC/DF complex), or TLR4 agonist (HMGB1) in the presence of dimethyl sulfoxide (DMSO) (vehicle control), CH223191 (AHR inhibitor), 1-MT (IDO inhibitor), or L-Kyn (AHR activator). After overnight incubation, the cells were replenished with fresh culture media and treated with pIC/DF complex (0.6 μg/ml). One day after second treatment, IFN-β production was measured using ELISA. (n=3).

In data set [10] the test system is B16-F10 melanoma cell line. Put plainly: PRR tolerance: IFN-β production by pretreated B16-F10 cells after secondary treatment. It counts as cell-based, mouse. To be noted: FIG. 8; for IFN-β production, cells pre-treated with mixture of 1-MT and CH223191 versus DMSO: substance given as mixture of IDO inhibitor and AHR inhibitor; for IFN-β production after secondary treatment, cells pretreated with the substance versus control: pretreatment at sublethal dose overnight, then pIC/DF complex 0.6 μg/ml. The protocol:
as §1, §4

The subject of data set [11] is 4T1 mouse breast cancer cells, B16-F10 mouse melanoma cells, 403688 mouse sarcoma cells, and WM266.4 human melanoma cells. The experiment in a line: IFN-β production (ELISA) by different cancer cells after first and second transfection with RIG-I agonists. It counts as cell-based. The settings on record: DharmaFECT, one day after first and second transfection; FIG. 11. The protocol:
4T1 mouse breast cancer cells, B16-F10 mouse melanoma cells, 403688 mouse sarcoma cells, and WM266.4 human melanoma cells were transfected with indicated RIG-I agonists using liposomal transfection agent DharmaFECT (DF). After overnight incubation, the cells was replenished with fresh culture media, followed by another transfection with the same RIG-I agonists. One day after first and second transfection IFN-β production by these cells were determined using ELSIA.

For lipopolysaccharide [LPS], the “IFN-β production after secondary treatment, cells pretreated with the substance versus control” value in [1] is on record as “significantly decreased”.
In the case of “ICR4: immunogenic cell-killing RNA RIG-I agonist, 5′ppp-containing double stem-loop ssRNA; SEQ ID NO: 1 (GGAUGCGGUACCUGACAGCAUCCUAAACUCAUGGUCCAUGUUUGUCCAUGGACCA; RNA, 5' {PPP}, backbone not given here; double stem-loop single-stranded RNA) [reference compound]”, in data set [2] (0.6 μg/ml, overnight, FIGS. 1A and 1B), the “sensitivity to antitumor effects, B16-F0 cell line compared with B16-F10 cell line” value is given as “much more sensitive”. For the same molecule, the “cytotoxicity (cell death)” value in [2] (ICR4-liposome complex 0.6 μg/ml, overnight incubation, MTT assay) was “underwent cell death and IFN-β production”; in data set [3], “underwent cell death and IFN-β production”. For the same molecule, the “cytotoxic effects after repeated treatments” value in [2] is “gradually augmented”. In addition, the “IFN-β production after first and second transfection” value in [4] is “significantly reduced and not”. For the same molecule, the IFN-β production result was “underwent cell death and IFN-β production” in [4] (ICR4-liposome complex 0.6 μg/ml, overnight incubation); “underwent cell death and IFN-β production” in [5] (ICR4-liposome complex 0.6 μg/ml, overnight incubation, ELISA). The “% cytotoxicity, cancer versus normal cells” value in [6] is recorded as “differentially sensitive; also recorded: Differential sensitivity”. In data set [7], the “response of the cells to the RIG-I agonist (resistance)” value was “resistant”. Further, the “IFN-β production after secondary treatment, cells pretreated with the substance versus control” value in data set [8] was “significantly decreased”.
Turning to `Nc1nc2c(ncn2[C@@H]2O[C@@H]3COP(=O)(O)O[C@H]4[C@@H](O)[C@H](n5cnc6c(N)ncnc65)O[C@@H]4COP(=O)(O)O[C@@H]2[C@@H]3O)c(=O)[nH]1` [2′3′-cGAMP], the “IFN-β production after secondary treatment, cells pretreated with the substance versus control” value in data set [8] is given as “significantly decreased”.
Turning to “ICR2AS-anti-miR-21: RIG-I agonist ICR2AS conjugated with anti-miR-21; SEQ ID NO: 9 (GGAUGCUGUCAGGUACCGCAUCCUCAACAUCAGUCUGAUAAGCUA; listed as RNA, further chemistry not given here)”, the “IFN-β production compared to ICR2 and ICR2AS conjugated with seed mutant anti-miR-21” value in [5] is “increased induction”.
For `Cn1cc(C[C@H](N)C(=O)O)c2ccccc21` [1-MT, 1-methyl tryptophan], the “IFN-β production, cells pre-treated with mixture of 1-MT and CH223191 versus DMSO” value in data set [9], in data set [10] and in data set [1] was “significantly increased” in each case.
Take `Cc1ccccc1N=Nc1ccc(NC(=O)c2ccnn2C)c(C)c1` [CH223191]: the “IFN-β production, cells pre-treated with mixture of 1-MT and CH223191 versus DMSO” value in [9], in [10] and in data set [1] was “significantly increased” in each case.
Consider `Nc1ccccc1C(=O)CC(N)C(=O)O` (stereo not shown) [Kyn, kynurenine], for which the “IFN-β production after secondary treatment, cells pretreated with the substance versus control” value in data set [9] and in data set [10] was “significantly decreased” throughout.
Consider “ICR2-anti-miR-21: RIG-I agonist ICR2 conjugated with anti-miR-21; SEQ ID NO: 7 (GGAUGCGGUACCUGACAGCAUCCUCAACAUCAGUCUGAUAAGCUA; listed as RNA, further chemistry not given here)”, for which the “IFN-β production compared to ICR2 and ICR2AS conjugated with seed mutant anti-miR-21” value in data set [5] is “increased induction”.

B1: mutant RigantmiR-21: composed of ICR4 and a non-complementary sequence to miR-21; SEQ ID NO: 3 (nucleic acid)
chain: GGAUGCGGUACCUGACAGCAUCUUGAAAUAAGGACUGAUGCUCAACAUCAGUCUGACACUCCA
modifications: chemistry not fully specified
As to B1, in data set [2], the “cytotoxic effects after repeated treatments” value is listed as “gradually augmented”. In addition, the “IFN-β production after first and second transfection” value in [4] is given as “significantly reduced”.

B2: RigantmiR-146a: nucleic acid molecule comprising a RIG-I agonist sequence and a miR-146a antagonist sequence; SEQ ID NO: 4 (nucleic acid)
chain: GGAUGCGGUACCUGACAGCAUCCUCCCCCGCAUUCCAUGGUCAACCCAUGGAAUUCAGUUCUCA
modifications: listed as RNA, chemistry not given here
As for B2, in data set [11], the “IFN-β production by different cancer cells” value was “differentially induce”.

B3: high mobility group box 1 (protein, UniProt P09429 1-215, looked up)
High mobility group protein B1: MGKGDPKKPRGKMSSYAFFVQTCREEHKKKHPDASVNFSEFSKKCSERWKTMSAKEKGKFEDMAKADKARYEREMKTYIPPKGETKKKFKDPNAPKRPPSAFFLFCSEYRPKIKGEHPGLSIGDVAKKLGEMWNNTAADDKQPYEKKAAKLKEKYEKDIAAYRAKGKPDAAKKGVVKAEKSKKKKEEEEDEEDEEDEEEEEDEEDEDEEEDDDDE
notes: TLR4 agonist protein
On to B3, for which the “IFN-β production after secondary treatment, cells pretreated with the substance versus control” value in data set [9], in data set [10] and in [1] was “significantly decreased” throughout.
